Test results from patent publication US12637471B2, “Heterocyclic compounds, compositions, methods of preparation and uses thereof” (Organon R&D Finland Ltd, priority 2021, dated 2026).

Experiments:
Format in all cases: biochemical
[1] = molecular target: T1, Recombinant human AKR1C3 (17β-HSD5) protein (Homo sapiens, UniProt P42330); experiment: Inhibition of AKR1C3 (17β-hydroxysteroid dehydrogenase type 5) enzyme, fluorescence assay; conditions: inhibitor at 500 nM
T1 construct: made in house; host or cells: E. coli
T1 sequence (P42330 1-323): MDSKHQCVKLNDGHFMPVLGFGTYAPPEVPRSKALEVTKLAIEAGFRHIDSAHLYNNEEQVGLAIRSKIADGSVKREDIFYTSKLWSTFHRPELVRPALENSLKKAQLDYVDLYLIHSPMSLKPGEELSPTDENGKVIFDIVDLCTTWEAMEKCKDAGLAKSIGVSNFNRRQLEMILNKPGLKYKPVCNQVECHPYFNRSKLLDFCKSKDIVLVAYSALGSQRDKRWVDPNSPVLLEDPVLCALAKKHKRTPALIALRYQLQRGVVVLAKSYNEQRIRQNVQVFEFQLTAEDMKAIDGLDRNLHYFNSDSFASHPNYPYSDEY
Procedure, shortened: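 Percent inhibition at 500 nM compound, derived from substrate conversion; product alcohol measured by fluorescence (ex 420, em 510 nm) against a 1 μM–10 nM standard curve. Reaction: 27 nM recombinant AKR1C3, 1 μM ketone substrate, 1 mM NADPH, phosphate/EDTA buffer pH 7.4, 1% DMSO, RT for 60–120 min.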

[2] = molecular target: T2, Recombinant human aldo-keto reductase family 1 member C2 (AKR1C2) protein (Homo sapiens, UniProt P52895); experiment: Inhibition of the aldo-keto reductase family 1 member C2, 3H-dihydrotestosterone conversion; conditions: inhibitor at 10 μM
T2 construct: made in house; host or cells: Sf-9 insect cells (baculovirus)
T2 sequence (P52895 1-323): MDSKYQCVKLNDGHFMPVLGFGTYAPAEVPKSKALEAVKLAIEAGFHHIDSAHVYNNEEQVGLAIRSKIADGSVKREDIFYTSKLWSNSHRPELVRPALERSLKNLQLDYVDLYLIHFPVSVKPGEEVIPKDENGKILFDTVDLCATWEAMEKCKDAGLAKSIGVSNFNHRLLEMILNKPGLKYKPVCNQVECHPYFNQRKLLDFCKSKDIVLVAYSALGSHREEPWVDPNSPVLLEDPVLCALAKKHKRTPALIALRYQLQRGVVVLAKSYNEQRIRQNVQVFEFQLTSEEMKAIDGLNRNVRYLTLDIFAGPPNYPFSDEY
Procedure, shortened: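 Single-point screen at 10 μM inhibitor, 1% DMSO: [3H]DHT (6.25 nM) reduction to 3α-diol by baculovirus-made AKR1C2 (13.6 nM), pH 7.4 phosphate buffer, 1 mM NADPH, 37 °C for 45 min. Radio-UPLC quantified product versus substrate to give percent inhibition.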

[3] = molecular target: T3, 17β-Hydroxysteroid Dehydrogenase Type 2 Enzyme (17β-HSD2) (Homo sapiens, UniProt P37059); experiment: Inhibition of the 17β-hydroxysteroid dehydrogenase type 2 enzyme, 3H-testosterone conversion; conditions: inhibitor at 10 μM
T3 construct: made in house; host or cells: Sf-9 insect cells (baculovirus)
T3 sequence (P37059 1-387): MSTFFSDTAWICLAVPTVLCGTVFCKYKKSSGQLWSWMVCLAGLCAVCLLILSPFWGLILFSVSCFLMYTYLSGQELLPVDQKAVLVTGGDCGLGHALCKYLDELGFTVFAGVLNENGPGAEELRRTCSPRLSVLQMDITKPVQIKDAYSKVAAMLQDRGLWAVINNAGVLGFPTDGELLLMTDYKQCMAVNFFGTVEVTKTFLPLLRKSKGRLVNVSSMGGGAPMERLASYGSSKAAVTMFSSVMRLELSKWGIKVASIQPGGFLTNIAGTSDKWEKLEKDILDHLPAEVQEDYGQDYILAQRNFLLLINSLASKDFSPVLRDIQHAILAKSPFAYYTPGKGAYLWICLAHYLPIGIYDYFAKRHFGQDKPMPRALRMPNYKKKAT
Procedure, shortened: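 Single-point screen at 10 μM inhibitor, 1% DMSO: Sf-9-expressed human enzyme (105 nM), NAD 1 mM, ³H-labelled testosterone 56.25 nM, pH 8.5 phosphate/EDTA buffer, 30 min, room temperature. After TCA quench, substrate and product radioactivity quantified by UPLC with scintillation detection; inhibition percent from conversion.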

SMILES | inhibition at 0.5 µM [1] [%] | inhibition at 10 µM [2] [%] | inhibition at 10 µM [3] [%]
N#CC(=C1CCN(C(=O)N2CCCCC2)CC1)c1cc(F)cc(F)c1 [Compound 10, 2-(3,5-difluorophenyl)-2-(1-(piperidine-1-carbonyl)piperidin-4-ylidene)acetonitrile] | 89 | 10 | 4
N#CC(=C1CCN(C(=O)N2CCc3nocc3C2)CC1)c1ccc(F)cc1 [Compound 12, 2-(4-fluorophenyl)-2-(1-(4,5,6,7-tetrahydroisoxazolo[4,3-c]pyridine-5-carbonyl)piperidin-4-ylidene)acetonitrile] | 99 | 19 | 8
N#CC(=C1CCN(C(=O)N2CCC(O)CC2)CC1)c1ccc(C(F)(F)F)cc1 [Compound 127, 2-(1-(4-hydroxypiperidine-1-carbonyl)piperidin-4-ylidene)-2-(4-(trifluoromethyl)phenyl)acetonitrile] | 96 | -6 | 5
N#CC(=C1CCN(C(=O)N2CCc3sccc3C2)CC1)c1cc(F)cc(F)c1 [Compound 51, 2-(3,5-difluorophenyl)-2-(1-(4,5,6,7-tetrahydrothieno[3,2-c]pyridine-5-carbonyl)piperidin-4-ylidene)acetonitrile] | 96 | 18 | 26
CN(C(=O)N1CCC(=C(C#N)c2ccc(Cl)cc2)CC1)C1COC1 [Compound 169, 4-((4-chlorophenyl)(cyano)methylene)-N-methyl-N-(oxetan-3-yl)piperidine-1-carboxamide] | 95 | 7 | -2
N#CC(=C1CCN(C(=O)N2CCc3nocc3C2)CC1)c1ccc(F)c(F)c1 [Compound 32, 2-(3,4-difluorophenyl)-2-(1-(4,5,6,7-tetrahydroisoxazolo[4,3-c]pyridine-5-carbonyl)piperidin-4-ylidene)acetonitrile] | 97 | 17 | 4
N#CC(=C1CCN(C(=O)N2C3CCC2COC3)CC1)c1ccc(F)cc1F [Compound 37, 2-(1-(3-oxa-8-azabicyclo[3.2.1]octane-8-carbonyl)piperidin-4-ylidene)-2-(2,4-difluorophenyl)acetonitrile] | 96 | 14 | 25
N#CC(=C1CCN(C(=O)N2CCc3[nH]ncc3C2)CC1)c1ccc(Cl)cn1 [Compound 67, 2-(5-chloropyridin-2-yl)-2-(1-(4,5,6,7-tetrahydro-1H-pyrazolo[4,3-c]pyridine-5-carbonyl)piperidin-4-ylidene)acetonitrile] | 98 | 6 | 9
N#CC(=C1CCN(C(=O)N2CCc3[nH]ncc3C2)CC1)c1cccc2cn[nH]c12 [Compound 71, 2-(1H-indazol-7-yl)-2-(1-(4,5,6,7-tetrahydro-1H-pyrazolo[4,3-c]pyridine-5-carbonyl)piperidin-4-ylidene)acetonitrile] | 99 | 12 | 29
CCN(CC)C(=O)N1CCC(=C(C#N)c2ccc(F)cn2)CC1 [Compound 172, 4-(cyano(5-fluoropyridin-2-yl)methylene)-N,N-diethylpiperidine-1-carboxamide] | 95 | -2 | 13
N#CC(=C1CCN(C(=O)N2CCc3nocc3C2)CC1)c1cccc2[nH]ncc12 [Compound 138, 2-(1H-indazol-4-yl)-2-(1-(4,5,6,7-tetrahydroisoxazolo[4,3-c]pyridine-5-carbonyl)piperidin-4-ylidene)acetonitrile] | 98 | 31 | 13
N#CC(=C1CCN(C(=O)N2CCn3nncc3C2)CC1)c1ccc(Cl)cn1 [Compound 163, 2-(5-chloropyridin-2-yl)-2-(1-(4,5,6,7-tetrahydro-[1,2,3]triazolo[1,5-a]pyrazine-5-carbonyl)piperidin-4-ylidene)acetonitrile] | 97 | 2 | 9
N#CC(=C1CCN(C(=O)N2CCc3[nH]ncc3C2)CC1)c1cc(F)cc(F)c1 [Compound 116, 2-(3,5-difluorophenyl)-2-(1-(4,5,6,7-tetrahydro-1H-pyrazolo[4,3-c]pyridine-5-carbonyl)piperidin-4-ylidene)acetonitrile] | 98 | 26 | 12
N#CC(=C1CCN(C(=O)N2C3CCC2COC3)CC1)c1ccc(F)cc1 [Compound 15, 2-(1-(3-oxa-8-azabicyclo[3.2.1]octane-8-carbonyl)piperidin-4-ylidene)-2-(4-fluorophenyl)acetonitrile] | 97 | 6 | 11

Next, values leading:

inhibition at 0.5 µM [1] [%] | inhibition at 10 µM [2] [%] | inhibition at 10 µM [3] [%] | SMILES
93 | 5 | 2 | COCC1CCN(C(=O)N2CCC(=C(C#N)c3ccc(F)cc3)CC2)CC1 [Compound 106, 2-(4-fluorophenyl)-2-(1-(4-(methoxymethyl)piperidine-1-carbonyl)piperidin-4-ylidene)acetonitrile]
99 | 15 | 27 | COC1CCN(C(=O)N2CCC(=C(C#N)c3ccc(Cl)s3)CC2)CC1 [Compound 78, 2-(5-chlorothiophen-2-yl)-2-(1-(4-methoxypiperidine-1-carbonyl)piperidin-4-ylidene)acetonitrile]
98 | 14 | 26 | CC(O)C1CCN(C(=O)N2CCC(=C(C#N)c3cccc(Cl)c3)CC2)CC1 (stereo not drawn) [Compound 154, 2-(3-chlorophenyl)-2-(1-(4-(1-hydroxyethyl)piperidine-1-carbonyl)piperidin-4-ylidene)acetonitrile]
97 | 18 | 6 | CCOC1CCN(C(=O)N2CCC(=C(C#N)c3ccc(F)cc3F)CC2)CC1 [Compound 137, 2-(2,4-difluorophenyl)-2-(1-(4-ethoxypiperidine-1-carbonyl)piperidin-4-ylidene)acetonitrile]
93 | 8 | 27 | CC(C)OC1CCN(C(=O)N2CCC(=C(C#N)c3cccc(Cl)c3)CC2)CC1 [Compound 139, 2-(3-chlorophenyl)-2-(1-(4-isopropoxypiperidine-1-carbonyl)piperidin-4-ylidene)acetonitrile]
95 | 9 | 20 | CC(O)C1CCN(C(=O)N2CCC(=C(C#N)c3ccc(F)cc3)CC2)CC1 (stereo not drawn) [Compound 21, 2-(4-fluorophenyl)-2-(1-(4-(1-hydroxyethyl)piperidine-1-carbonyl)piperidin-4-ylidene)acetonitrile]
93 | 11 | 18 | CC(O)C1CCN(C(=O)N2CCC(=C(C#N)c3ccc(C(F)(F)F)cc3)CC2)CC1 (stereo not drawn) [Compound 151, 2-(1-(4-(1-hydroxyethyl)piperidine-1-carbonyl)piperidin-4-ylidene)-2-(4-(trifluoromethyl)phenyl)acetonitrile]
99 | 0 | 8 | N#CC(=C1CCN(C(=O)N2CCC(O)CC2)CC1)c1ccc(F)cc1 [Compound 4, 2-(4-fluorophenyl)-2-(1-(4-hydroxypiperidine-1-carbonyl)piperidin-4-ylidene)acetonitrile]
